Values quoted from earlier work, collected in patent US20240277651A1, “MIXED GLYCEROL ESTER COMPOSITION” (priority 2021, published 2024).

System: pathogenic, gram-positive bacteria
Conditions: Skrivanova et al, Veterinarni Medicina, 51, 2006

CCCCCCCCCCCC(=O)OCC(O)CO (stereo not shown) [monolaurin]
Inhibitory action on pathogenic, gram-positive bacteria: inhibitory action
